This is an account of results in ChEMBL document CHEMBL1201862, “PubChem BioAssay data set” (2004).

Test systems include 786-0; CAKI-1; COLO 205; HCT-15; HOP-62; Hs-578T; IGROV-1; LOX IMVI; MDA-MB-231; MDA-MB-435; MOLT-4; NCI/ADR-RES; PC-3; RPMI-8226; RXF 393; SF-295; SK-MEL-2; SK-OV-3; TK-10; UO-31.
Common to all, as to assay: DTP human tumour cell line panel, 48 h

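Step 1: Grow cells in 96-well plates. Step 2: Expose to compound for 48 hours at 5 concentrations. Step 3: Interpolate endpoints linearly; if unreached, use highest concentration. GI50 is the concentration that inhibits growth by half.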 The source made the active and inactive calls. Cut-off read from the data, not from the text of the source: active = GI50 up to about 1.1 µM and inactive = higher.

The term GI50 denotes the concentration that inhibits growth by half. Take `COC(=O)C#CC1(O)C=CC(=O)C=C1`: the GI50 with 786-0 was 0.483 µM (active); with CAKI-1, 0.209 µM (active); in the assay with COLO 205, 2.41 µM (inactive); with HCT-15, 0.248 µM; in the assay on HOP-62, 4.72 µM (inactive); with Hs-578T it was 2.79 µM (inactive). Besides, the GI50 in the assay on IGROV-1 is 0.508 µM (active); in the assay with LOX IMVI it was 0.275 µM (active); with MDA-MB-231, 2 µM (inactive); in the assay with MDA-MB-435, 0.436 µM (active); with MOLT-4, 0.0933 µM (active); in the assay on NCI/ADR-RES it was 0.525 µM (active). Moreover, the GI50 is 1.29 µM (inactive) in the assay on PC-3; 0.687 µM (active) in the assay with RPMI-8226; 1.58 µM (inactive) in the assay with RXF 393; 8.69 µM (inactive) with SF-295; 2.36 µM (inactive) with SK-MEL-2; 28 µM (inactive) with SK-OV-3. Further, the figures for the GI50 in the assay on TK-10 and in the assay with UO-31 were 1.18 µM (inactive) and 0.889 µM (active), respectively.

Turning to `CCN(CC)CCN(C)c1ccc(CO)c2c1c(=O)c1ccccc1[s+]2[O-]` (stereo not given), the GI50 in the assay with 786-0 is 1.71 µM (inactive); in the assay with CAKI-1, 13.2 µM (inactive); in the assay with COLO 205, 7.06 µM (inactive); with HCT-15 it was 4.2 µM; with HOP-62 it was 4.52 µM (inactive); in the assay on Hs-578T, 12 µM (inactive). Also, the GI50 was 16.9 µM (inactive) with IGROV-1; 1.78 µM (inactive) with LOX IMVI; 2.84 µM (inactive) with MDA-MB-231; 2 µM (inactive) in the assay with MDA-MB-435; 2.25 µM (inactive) with MOLT-4; 1.74 µM (inactive) in the assay with NCI/ADR-RES. Also, the GI50 in the assay on PC-3 was 13.7 µM (inactive); in the assay on RPMI-8226 it was 2.83 µM (inactive); with RXF 393, 12 µM (inactive); in the assay with SF-295, 13.6 µM (inactive); in the assay on SK-MEL-2, 19.9 µM (inactive); in the assay on SK-OV-3 it was 16.1 µM (inactive). Also, the values for the GI50 with TK-10 and with UO-31 were 16.9 µM (inactive) and 16.3 µM (inactive), respectively.

For `CCCCSC1=N/C(=C\c2ccccc2O)C(Cl)=N1`, the GI50 in the assay on 786-0 was > 100 µM (inactive); in the assay on CAKI-1 it was > 100 µM (inactive); in the assay with COLO 205, > 100 µM (inactive); in the assay with HCT-15, greater than 100 µM; with HOP-62, > 100 µM (inactive); with Hs-578T, > 100 µM (inactive). The GI50 in the assay on IGROV-1, in the assay on LOX IMVI, in the assay on MDA-MB-231, with MDA-MB-435, with MOLT-4 and in the assay with NCI/ADR-RES was > 100 µM (inactive) throughout. The GI50 in the assay with PC-3, in the assay on RPMI-8226, in the assay on RXF 393, in the assay on SF-295, in the assay with SK-MEL-2 and in the assay with SK-OV-3 was > 100 µM (inactive) in each case. Further, the GI50 with TK-10 and in the assay with UO-31 was > 100 µM (inactive) in each case.

As for `O=C1NC(N2CCCCC2)=N/C1=C\c1ccc(Cl)cc1`, the GI50 with 786-0 is 28.7 µM (inactive); in the assay with CAKI-1, > 100 µM (inactive); with COLO 205, 74.5 µM (inactive); in the assay on HCT-15, 43.1 µM; in the assay with HOP-62, 46.7 µM (inactive); in the assay with Hs-578T, 28.5 µM (inactive). In addition, the GI50 is 25.9 µM (inactive) in the assay with IGROV-1; 34.5 µM (inactive) in the assay on LOX IMVI; 34.1 µM (inactive) with MDA-MB-231; 60.4 µM (inactive) in the assay with MDA-MB-435; > 100 µM (inactive) in the assay on MOLT-4; 22 µM (inactive) with NCI/ADR-RES. The GI50 in the assay on PC-3 was 37.1 µM (inactive); with RPMI-8226 it was 66.2 µM (inactive); in the assay with RXF 393 it was > 100 µM (inactive); in the assay on SF-295 it was 60.5 µM (inactive); with SK-MEL-2, > 100 µM (inactive); in the assay on SK-OV-3 it was > 100 µM (inactive). The GI50 is 30.2 µM (inactive) in the assay with TK-10 and 34.7 µM (inactive) in the assay with UO-31.

Regarding `O=[N+]([O-])c1cccc2nc3ccccc3c(NCCCN3CCCCC3)c12`, the concentration for 50% growth inhibition (GI50) with 786-0 is < 0.01 µM (active); in the assay with CAKI-1 it was 0.0312 µM (active); in the assay with COLO 205 it was < 0.0107 µM (active); in the assay with HCT-15 it was 0.0158 µM; in the assay with HOP-62, 0.0125 µM (active); with Hs-578T, 0.0385 µM (active). Moreover, the GI50 in the assay on IGROV-1 was < 0.0104 µM (active); in the assay with LOX IMVI it was 0.0194 µM (active); in the assay on MDA-MB-231, 0.016 µM (active); with MDA-MB-435, 0.0106 µM (active); in the assay with MOLT-4, < 0.01 µM (active); in the assay with NCI/ADR-RES, 0.418 µM (active). Moreover, the GI50 in the assay on PC-3 is < 0.01 µM (active); in the assay on RPMI-8226 it was < 0.01 µM (active); in the assay with RXF 393, 0.0101 µM (active); in the assay on SF-295, 0.0146 µM (active); with SK-MEL-2, 0.0148 µM (active); in the assay with SK-OV-3 it was 0.028 µM (active). Besides, the GI50 in the assay with TK-10 was 0.0256 µM (active); in the assay on UO-31, 0.0237 µM (active).

Consider `CCOC(=O)c1cnccc1CC1(C#N)c2ccccc2C=CN1C(=O)c1ccccc1` (stereo not given), for which the GI50 in the assay on 786-0 was 29.7 µM (inactive); with CAKI-1 it was 27.2 µM (inactive); in the assay with COLO 205 it was 28.2 µM (inactive); with HCT-15 it was 31 µM; in the assay with HOP-62, 53.2 µM (inactive); in the assay on Hs-578T, 13 µM (inactive). For the same compound, the GI50 with IGROV-1 was 17.3 µM (inactive); in the assay on LOX IMVI, 24.1 µM (inactive); in the assay with MDA-MB-231 it was 25.5 µM (inactive); in the assay on MDA-MB-435, 35.6 µM (inactive); in the assay with MOLT-4 it was 15.5 µM (inactive); in the assay on NCI/ADR-RES it was 27.7 µM (inactive). For the same compound, the GI50 with PC-3 was 20.4 µM (inactive); in the assay on RPMI-8226, 4.91 µM (inactive); with RXF 393, 64.9 µM (inactive); with SF-295 it was 53.6 µM (inactive); in the assay on SK-MEL-2, 21.6 µM (inactive); in the assay with SK-OV-3 it was 26.1 µM (inactive). The GI50 with TK-10 is 37.5 µM (inactive); in the assay with UO-31 it was 27.2 µM (inactive).

`Cc1ccc2nc(C(=O)O)c(=O)[nH]c2c1`: the GI50 in the assay with 786-0 is > 100 µM (inactive); with CAKI-1, > 100 µM (inactive); with COLO 205, > 100 µM (inactive); in the assay with HCT-15, greater than 100 µM; with HOP-62, > 100 µM (inactive); with Hs-578T, > 100 µM (inactive). Further, the GI50 with IGROV-1, in the assay with LOX IMVI, in the assay on MDA-MB-231, in the assay on MDA-MB-435, in the assay with MOLT-4 and in the assay on NCI/ADR-RES was > 100 µM (inactive) throughout. For the same compound, the GI50 with PC-3, with RPMI-8226, in the assay on RXF 393, in the assay on SF-295, with SK-MEL-2 and with SK-OV-3 was > 100 µM (inactive) in each case. Further, the GI50 in the assay on TK-10 and in the assay with UO-31 was > 100 µM (inactive) each time.

With `CCCCCCCCCCCCCCCCCCNc1nc(=O)n(C2CC(O)C(COP(=O)(O)O)O2)cc1F` (stereo not given), the GI50 is 45.2 µM (inactive) in the assay on 786-0; 15 µM (inactive) in the assay with CAKI-1; > 67.1 µM (inactive) in the assay on COLO 205; greater than 100 µM in the assay with HCT-15; 81.7 µM (inactive) with HOP-62; > 100 µM (inactive) in the assay with Hs-578T. The GI50 with IGROV-1 was > 74.8 µM (inactive); with LOX IMVI it was 58.9 µM (inactive); in the assay with MDA-MB-231 it was > 100 µM (inactive); with MDA-MB-435, > 100 µM (inactive); with MOLT-4, 36 µM (inactive); in the assay on NCI/ADR-RES, > 35.6 µM (inactive). The GI50 in the assay on PC-3 was 26.1 µM (inactive); with RPMI-8226, > 63.2 µM (inactive); with RXF 393 it was > 80 µM (inactive); in the assay with SF-295 it was > 80.7 µM (inactive); in the assay on SK-MEL-2 it was > 100 µM (inactive); in the assay with SK-OV-3, > 100 µM (inactive). The figures for the GI50 in the assay on TK-10 and with UO-31 were > 100 µM (inactive) and 31.7 µM (inactive), respectively.

For the compound `COC(=O)C1=C(C)NC(=O)N2[C@@H](CCOCc3ccccc3)CC[C@@H]12`, the GI50 with 786-0 is > 50 µM (inactive); in the assay with CAKI-1 it was > 50 µM (inactive); in the assay with COLO 205, > 50 µM (inactive); in the assay with HCT-15, greater than 50 µM; in the assay on HOP-62, > 50 µM (inactive); with Hs-578T, > 50 µM (inactive). The GI50 was > 50 µM (inactive) with IGROV-1; > 50 µM (inactive) with LOX IMVI; > 50 µM (inactive) in the assay with MDA-MB-231; > 50 µM (inactive) in the assay on MDA-MB-435; 47.9 µM (inactive) in the assay on MOLT-4; > 50 µM (inactive) with NCI/ADR-RES. In addition, the GI50 was > 50 µM (inactive) in the assay with PC-3; > 50 µM (inactive) in the assay on RPMI-8226; 13.1 µM (inactive) in the assay on RXF 393; > 50 µM (inactive) in the assay on SF-295; > 50 µM (inactive) in the assay on SK-MEL-2; > 50 µM (inactive) with SK-OV-3. Also, the GI50 in the assay with TK-10 and in the assay on UO-31 was > 50 µM (inactive) each time.

For the compound `CC(C)CC1c2[nH]c3ccccc3c2C[C@H]2C(=O)NC(Cc3c[nH]c4ccccc34)C(=O)N12` (stereo not given in full), the GI50 in the assay with 786-0 is 17.5 µM (inactive); with CAKI-1, 23.7 µM (inactive); in the assay with COLO 205, 17.8 µM (inactive); in the assay with HCT-15, 14.6 µM; with HOP-62, 20.6 µM (inactive); with Hs-578T, 7.11 µM (inactive). The GI50 with IGROV-1 was 15.5 µM (inactive); in the assay with LOX IMVI, 14.2 µM (inactive); in the assay with MDA-MB-231, 20.3 µM (inactive); in the assay on MDA-MB-435, 16 µM (inactive); in the assay with MOLT-4 it was 13.2 µM (inactive); with NCI/ADR-RES, 18 µM (inactive). For the same compound, the GI50 with PC-3 is 11.1 µM (inactive); in the assay with RPMI-8226, 13.9 µM (inactive); in the assay with RXF 393, 7.87 µM (inactive); in the assay with SF-295, 20.4 µM (inactive); with SK-MEL-2 it was 16 µM (inactive); in the assay with SK-OV-3, 16.5 µM (inactive). The figures for the GI50 in the assay with TK-10 and in the assay on UO-31 were 4.93 µM (inactive) and 14.3 µM (inactive), respectively.
